Several values for one entry are separate records, joined by “and”; a condition that tells them apart may be missing. Equal entries are not always repeated. Where a SMILES comes first, the peptide text is derived from it. [ ]: non-standard residue; d: D form. The star is where a group is joined. ξ: configuration not given here. ξW = NC(Cc1c[nH]c2ccccc12)C(=O)O; Cbz = O=C(OCc1ccccc1)*; ξT = CC(O)C(N)C(=O)O; NHOH = ON*
What follows are compounds tested against T1, Bone morphogenetic protein 1 (Homo sapiens, UniProt P13497) (assay: Inhibitory effect against Procollagen C-terminal proteinase).
T1 sequence (P13497 whole entry): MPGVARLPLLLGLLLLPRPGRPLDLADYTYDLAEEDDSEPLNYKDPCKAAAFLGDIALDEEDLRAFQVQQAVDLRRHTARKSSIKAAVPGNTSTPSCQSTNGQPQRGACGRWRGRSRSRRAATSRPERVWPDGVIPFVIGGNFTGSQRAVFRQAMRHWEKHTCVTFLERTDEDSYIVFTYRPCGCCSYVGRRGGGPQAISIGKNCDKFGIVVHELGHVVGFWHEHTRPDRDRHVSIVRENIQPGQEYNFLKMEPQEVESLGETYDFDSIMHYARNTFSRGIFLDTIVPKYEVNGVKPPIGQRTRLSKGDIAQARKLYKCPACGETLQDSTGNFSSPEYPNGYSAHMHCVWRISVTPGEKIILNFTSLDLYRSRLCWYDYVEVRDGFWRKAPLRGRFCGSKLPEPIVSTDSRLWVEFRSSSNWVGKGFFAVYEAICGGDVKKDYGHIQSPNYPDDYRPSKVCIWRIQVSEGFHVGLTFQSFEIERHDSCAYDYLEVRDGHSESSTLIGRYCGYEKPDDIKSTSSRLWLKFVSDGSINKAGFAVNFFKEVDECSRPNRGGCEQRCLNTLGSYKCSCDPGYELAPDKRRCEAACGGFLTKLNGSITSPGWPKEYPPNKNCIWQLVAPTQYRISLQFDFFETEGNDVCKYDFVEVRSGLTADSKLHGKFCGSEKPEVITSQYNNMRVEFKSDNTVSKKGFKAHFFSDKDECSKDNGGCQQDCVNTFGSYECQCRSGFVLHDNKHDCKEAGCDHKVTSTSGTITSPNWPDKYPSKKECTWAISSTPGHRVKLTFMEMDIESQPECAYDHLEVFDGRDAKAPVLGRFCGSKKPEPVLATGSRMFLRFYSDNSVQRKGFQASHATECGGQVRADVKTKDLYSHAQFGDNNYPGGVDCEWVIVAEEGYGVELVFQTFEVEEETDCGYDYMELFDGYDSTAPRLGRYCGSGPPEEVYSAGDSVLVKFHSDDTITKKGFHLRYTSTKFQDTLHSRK

Row | SMILES | IC50
1 | O=C(NC(Cc1c[nH]c2ccccc12)C(=O)NO)OCc1ccccc1 (stereo not given) | 67000 nM
2 | CNC(=O)[C@H](CCC(N)=O)NC(=O)[C@H](CC(=O)O)CC(=O)NO | 68000 nM
3 | CC[C@@H](C)[C@@H](NC(=O)OCc1ccccc1)C(=O)N[C@H](Cc1ccccn1)C(=O)NO | 220 nM
4 | O=C(CCCNC(=O)OCc1ccccc1)N[C@@H](Cc1c[nH]c2ccccc12)C(=O)NO | 19000 nM
5 | CC[C@@H](C)[C@@H](NCN(Cc1ccc(F)cc1)C(=O)c1cccc(Cl)c1)C(=O)N[C@H](Cc1cscn1)C(=O)NO | 53 nM
6 | CC[C@H](C)[C@H](NS(=O)(=O)c1cc(C)c(Cl)cc1C)C(=O)N[C@@H](CNC(=O)OCc1ccccc1)C(=O)NO | 67 nM
7 | CC[C@@H](C)[C@@H](NCN(Cc1ccc(F)cc1)C(=O)c1cccc(C)c1)C(=O)N[C@H](Cc1cscn1)C(=O)NO | 110 nM
8 | CC[C@H](C)[C@H](NS(=O)(=O)c1ccc(Br)c(Br)c1)C(=O)N[C@@H](CNC(=O)OCc1ccccc1)C(=O)NO | 26 nM
9 | CC[C@H](C)[C@H](NS(=O)(=O)c1cc(Cl)ccc1Cl)C(=O)N[C@@H](CNC(=O)OCc1ccccc1)C(=O)NO | 65 nM
10 | CC(=O)N[C@@H](Cc1ccc(O)cc1)C(=O)NCC(=O)NO | 280000 nM
11 | CC[C@@H](C)[C@@H](NS(=O)(=O)C1=CCC(C)(Cl)C=C1C)C(=O)N[C@H](Cc1cscn1)C(=O)NO (stereo not given in full) | 43 nM
12 | CC[C@@H](C)[C@@H](NC(=O)OCc1ccccc1)C(=O)N[C@H](Cc1ccc(Br)cc1)C(=O)NO | 200 nM
13 | CC(C)C(NC(=O)OCc1ccccc1)C(=O)N[C@H](Cc1c[nH]c2ccccc12)C(=O)NO (stereo not given in full) | 1900 nM
14 | CC[C@@H](C)[C@@H](NC(=O)OCc1ccccc1)C(=O)NC(Cc1ccccc1Cl)C(=O)NO (stereo not given in full) | 190 nM
15 | CCCC(NC(=O)OCc1ccccc1)C(=O)N[C@H](Cc1c[nH]c2ccccc12)C(=O)NO (stereo not given in full) | 870 nM
16 | CC[C@H](C)[C@H](NS(=O)(=O)c1cc(Br)c(Br)s1)C(=O)NC(Cc1cscn1)C(=O)NO (stereo not given in full) | 32 nM
17 | CC[C@@H](C)[C@@H](NS(=O)(=O)c1cc(Cl)c(Cl)cc1Cl)C(=O)N[C@H](Cc1cscn1)C(=O)NO | 49 nM
18 | CC[C@@H](C)[C@@H](NCN(Cc1ccc(F)cc1)C(=O)c1ccc(Br)cc1)C(=O)N[C@H](Cc1cscn1)C(=O)NO | 89 nM
19 | CC[C@@H](C)[C@H](NC(=O)C(Cc1ccc(F)cc1)NC(=O)OCc1ccccc1)C(=O)N[C@@H](Cc1cscn1)C(=O)NO (stereo not given in full) | 78 nM
20 | O=C(N[C@@H](Cc1ccccc1)C(=O)N[C@@H](Cc1c[nH]c2ccccc12)C(=O)NO)OCc1ccccc1 | 17000 nM

Row | SMILES | IC50
21 | CC[C@@H](C)[C@H](NC(=O)C(Cc1c[nH]c2ccccc12)NC(=O)OCc1ccccc1)C(=O)N[C@@H](Cc1cscn1)C(=O)NO (stereo not given in full) | 67 nM
22 | CC[C@@H](C)[C@@H](NC(=O)OCc1ccc(Cl)c(Cl)c1)C(=O)N[C@H](Cc1cscn1)C(=O)NO | 73 nM
23 | CC[C@H](C)[C@@H](NC(=O)Nc1ccccc1Cl)C(=O)N[C@H](Cc1cc2ccccc2[nH]1)C(=O)NO | 5000 nM
24 | CC[C@@H](C)[C@@H](NCN(Cc1ccc(F)cc1)C(=O)c1ccc(F)cc1)C(=O)N[C@H](Cc1cscn1)C(=O)NO | 90 nM
25 | CC[C@@H](C)[C@@H](NC(=O)OCc1ccccc1)C(=O)N[C@H](Cc1cnc[nH]1)C(=O)NO | 250 nM
26 | O=C(NC(C(=O)N[C@H](Cc1c[nH]c2ccccc12)C(=O)NO)c1ccccc1)OCc1ccccc1 (stereo not given in full) | 1200 nM
27 | CC[C@@H](C)[C@@H](NCN(Cc1ccc(F)cc1)C(=O)c1ccc(C(C)(C)C)cc1)C(=O)N[C@H](Cc1cscn1)C(=O)NO | 140 nM
28 | CC[C@@H](C)[C@H](NC(=O)C(COCc1ccccc1)NC(=O)OCc1ccccc1)C(=O)N[C@@H](Cc1cscn1)C(=O)NO (stereo not given in full) | 78 nM
29 | CC[C@@H](C)[C@@H](NC(=O)OCc1ccccc1)C(=O)NCC(NC(=O)OCc1ccccc1)C(=O)NO (stereo not given in full) | 61 nM
30 | CC[C@@H](C)[C@@H](NS(=O)(=O)c1ccc(Br)c(Br)c1)C(=O)N[C@H](Cc1cscn1)C(=O)NO | 30 nM
31 | CC[C@@H](C)[C@@H](NC(=O)OCc1ccccc1)C(=O)N[C@H](Cc1ccc(Br)s1)C(=O)NO | 210 nM
32 | CNC(=O)C1CCCN1C(=O)[C@H](CCC(N)=O)NC(=O)[C@H](CC(=O)O)CC(=O)NO (stereo not given in full) | 22000 nM
33 | CC[C@H](C)[C@H](NS(=O)(=O)c1cc(Br)c(Br)s1)C(=O)N[C@@H](CNC(=O)OCc1ccccc1)C(=O)NO | 52 nM
34 | CC[C@@H](C)[C@H](NC(=O)C(CCSC)NC(=O)OCc1ccccc1)C(=O)N[C@@H](Cc1cscn1)C(=O)NO (stereo not given in full) | 43 nM
35 | O=C(N[C@H](Cc1ccc(O)cc1)C(=O)N[C@@H](Cc1c[nH]c2ccccc12)C(=O)NO)OCc1ccccc1 | 20000 nM
36 | CC[C@@H](C)[C@@H](NC(=O)OCc1ccccc1)C(=O)NC(Cc1ccc(OC(C)(C)C)cc1)C(=O)NO (stereo not given in full) | 130 nM
37 | CC[C@H](C)[C@@H](NC(=O)NCCc1ccccc1)C(=O)N[C@H](Cc1cc2ccccc2[nH]1)C(=O)NO | 3600 nM
38 | CC[C@@H](C)[C@@H](NS(=O)(=O)c1cc(Cl)ccc1Cl)C(=O)N[C@H](Cc1cscn1)C(=O)NO | 29 nM
39 | CC[C@H](C)[C@@H](Nc1cccc(C(F)(F)F)c1)C(=O)N[C@H](Cc1cc2ccccc2[nH]1)C(=O)NO | 2800 nM
40 | CC[C@@H](C)[C@@H](NC(=O)OCc1cc(Cl)cc(Cl)c1)C(=O)N[C@H](Cc1cscn1)C(=O)NO | 150 nM

Row | SMILES | IC50
41 | CC[C@@H](C)[C@@H](NC(=O)OCc1cccc(C(F)(F)F)c1)C(=O)N[C@H](Cc1cscn1)C(=O)NO | 90 nM
42 | O=C(N[C@H](Cc1ccccc1)C(=O)N[C@@H](Cc1c[nH]c2ccccc12)C(=O)NO)OCc1ccccc1 | 18000 nM
43 | CC[C@@H](C)[C@H](NC(=O)C(CC(C)C)NC(=O)OCc1ccccc1)C(=O)N[C@@H](Cc1cscn1)C(=O)NO (stereo not given in full) | 110 nM
44 | CC[C@H](C)[C@@H](NC(=O)Nc1cc(Cl)cc(Cl)c1)C(=O)N[C@H](Cc1cc2ccccc2[nH]1)C(=O)NO | 5100 nM
45 | CC[C@H](C)[C@@H](NC(=O)OCc1ccccc1)C(=O)N[C@H](Cc1c[nH]c2ccccc12)C(=O)NO | 730 nM
46 | CC[C@H](C)[C@@H](NC(=O)Nc1ccccc1[N+](=O)[O-])C(=O)N[C@H](Cc1cc2ccccc2[nH]1)C(=O)NO | 2100 nM
47 | CC[C@@H](C)[C@@H](NC(=O)OCc1ccccc1)C(=O)NCC(NCc1ccccc1)C(=O)NO (stereo not given in full) | 94 nM
48 | CC[C@H](C)[C@@H](Nc1ccc(Cl)c(Cl)c1)C(=O)N[C@H](Cc1cc2ccccc2[nH]1)C(=O)NO | 750 nM
49 | O=C(O)CCC(NC(=O)OCc1ccccc1)C(=O)N[C@H](Cc1c[nH]c2ccccc12)C(=O)NO (stereo not given in full) | 3000 nM
50 | CC[C@@H](C)[C@@H](NC(=O)OCc1ccccc1)C(=O)NC(Cc1ccc(-c2ccccc2)cc1)C(=O)NO (stereo not given in full) | 200 nM
51 | CC[C@@H](C)[C@@H](NC(=O)OCc1ccccc1)C(=O)N[C@H](Cc1ccc([N+](=O)[O-])cc1)C(=O)NO | 200 nM and 220 nM
52 | CC[C@@H](C)[C@@H](NC(=O)OCc1ccccc1Br)C(=O)N[C@H](Cc1cscn1)C(=O)NO | 78 nM
53 | CC[C@@H](C)[C@@H](NCN(Cc1ccc(F)cc1)C(=O)c1ccc(Cl)cc1)C(=O)N[C@H](Cc1cscn1)C(=O)NO | 50 nM
54 | CC[C@@H](C)[C@H](NC(=O)C(Cc1ccccc1)NC(=O)OCc1ccccc1)C(=O)N[C@@H](Cc1cscn1)C(=O)NO (stereo not given in full) | 44 nM
55 | CC(=O)N[C@@H](CCCNC(=N)N)C(=O)N[C@@H](C)C(=O)NO (Ac-Arg-Ala-{NHOH}) | > 800000 nM
56 | CC(=O)N[C@@H](Cc1ccc(O)cc1)C(=O)N[C@@H](Cc1ccc(O)cc1)C(=O)NCC(=O)NO (Ac-Tyr-Tyr-Gly-{NHOH}) | 65000 nM
57 | CC(O)C(NC(=O)OCc1ccccc1)C(=O)N[C@@H](Cc1c[nH]c2ccccc12)C(=O)NO (stereo not given in full) (Cbz-[ξT]-Trp-{NHOH}) | 15000 nM
58 | O=C(NC(Cc1c[nH]c2ccccc12)C(=O)N[C@@H](Cc1c[nH]c2ccccc12)C(=O)NO)OCc1ccccc1 (stereo not given in full) (Cbz-[ξW]-Trp-{NHOH}) | 19000 nM
59 | CC[C@@H](C)[C@@H](NC(=O)OCc1ccccc1)C(=O)N[C@H](Cc1cscn1)C(=O)NO (stereo in doubt; form 1) | 110 nM
60 | CC[C@@H](C)[C@@H](NC(=O)OCc1ccccc1)C(=O)N[C@H](Cc1cscn1)C(=O)NO (stereo in doubt; form 2) | 110 nM

Source: ChEMBL document CHEMBL1132808, “Solid-phase synthesis of di- and tripeptidic hydroxamic acids as inhibitors of procollagen C-proteinase” (Bioorg Med Chem Lett, 2000)
